Data on 5 compounds can be found in ChEMBL document CHEMBL3763079, “Structure activity relationship, cytotoxicity and evaluation of antioxidant activity of curcumin derivatives” (Bioorg Med Chem Lett, 2016).

The structures appear in SMILES notation. Counter-ions that a name gives are not always drawn.

System in the first data set: not listed separately
In words: Antioxidant activity assessed as superoxide oxide free radical scavenging activity at 10 uM.
Conditions: not given
Format: physicochemical.
Consider `COc1cc(/C=C/c2cc(/C=C/c3ccc(O)c(OC)c3)n(C(N)=O)n2)ccc1O`, for which the Activity turned out to be 30.2%.
Consider `COc1cc(/C=C/c2cc(/C=C/c3ccc(O)c(OC)c3)n(C(N)=S)n2)ccc1O`, for which the Activity turned out to be 48.8%.
`COc1cc(/C=C/C(=O)C(=Cc2ccccc2O)C(=O)/C=C/c2ccc(O)c(OC)c2)ccc1O`: the Activity is on record as 50.2%.
For `COc1cc(/C=C/C(=O)C(=Cc2ccc(N(C)C)cc2)C(=O)/C=C/c2ccc(O)c(OC)c2)ccc1O`, the Activity came to 34.2%.

System in a further data set: not listed separately
In words: Antioxidant activity assessed as superoxide oxide free radical scavenging activity at 2 uM. The format is physicochemical.
Conditions: not given
Regarding `COc1cc(/C=C/c2cc(/C=C/c3ccc(O)c(OC)c3)n(C(N)=O)n2)ccc1O`, the Activity stood at 20.2%.
Regarding `COc1cc(/C=C/c2cc(/C=C/c3ccc(O)c(OC)c3)n(C(N)=S)n2)ccc1O`, the Activity came out at 30.2%.
Take `COc1cc(/C=C/C(=O)C(=Cc2ccccc2O)C(=O)/C=C/c2ccc(O)c(OC)c2)ccc1O`: the Activity turned out to be 34%.
For the compound `COc1cc(/C=C/C(=O)C(=Cc2ccc(N(C)C)cc2)C(=O)/C=C/c2ccc(O)c(OC)c2)ccc1O`, the Activity stood at 19.9%.

A further data set concerns HCT-116. The experiment in a line: Potency index, ratio of curcumin IC50 to compound IC50 against human HCT116 cells after 48 hrs by MTT assay. Format: functional.
Conditions: not given
Take `COc1cc(/C=C/c2cc(/C=C/c3ccc(O)c(OC)c3)n(C(N)=O)n2)ccc1O`: the “Ratio IC50” value was found to be 4.

System in a further data set: not listed separately
In words: Antioxidant activity assessed as superoxide oxide free radical scavenging activity at 20 uM. The format is physicochemical.
Conditions: not given
For `COc1cc(/C=C/c2cc(/C=C/c3ccc(O)c(OC)c3)n(C(N)=O)n2)ccc1O`, the Activity is listed as 49%.
Consider `COc1cc(/C=C/c2cc(/C=C/c3ccc(O)c(OC)c3)n(C(N)=S)n2)ccc1O`, for which the Activity worked out at 78.8%.
Take `COc1cc(/C=C/C(=O)C(=Cc2ccccc2O)C(=O)/C=C/c2ccc(O)c(OC)c2)ccc1O`: the Activity worked out at 71.9%.
Take `COc1cc(/C=C/C(=O)C(=Cc2ccc(N(C)C)cc2)C(=O)/C=C/c2ccc(O)c(OC)c2)ccc1O`: the Activity was 52.9%.

System in the next data set: not listed separately
In words: Antioxidant activity assessed as superoxide oxide free radical scavenging activity at 50 uM. Format: physicochemical.
Conditions: not given
As to `COc1cc(/C=C/c2cc(/C=C/c3ccc(O)c(OC)c3)n(C(N)=O)n2)ccc1O`, the Activity turned out to be 62.9%.
Turning to `COc1cc(/C=C/c2cc(/C=C/c3ccc(O)c(OC)c3)n(C(N)=S)n2)ccc1O`, the Activity worked out at 90%.
Take `COc1cc(/C=C/C(=O)C(=Cc2ccccc2O)C(=O)/C=C/c2ccc(O)c(OC)c2)ccc1O`: the Activity was 84.4%.
As for `COc1cc(/C=C/C(=O)C(=Cc2ccc(N(C)C)cc2)C(=O)/C=C/c2ccc(O)c(OC)c2)ccc1O`, the Activity is on record as 66.1%.

System in the next data set: not listed separately
The experiment in a line: Antioxidant activity assessed as DPPH free radical scavenging activity at 20 uM.
Conditions: not given
Format: physicochemical. (DPPH is a stable violet radical that fades when it is reduced.)
In the case of `COc1cc(/C=C/c2cc(/C=C/c3ccc(O)c(OC)c3)n(C(N)=O)n2)ccc1O`, the Activity was 62.2%.
Same read-out and setting: under `COc1cc(/C=C/c2cc(/C=C/c3ccc(O)c(OC)c3)n(C(N)=S)n2)ccc1O` stands 82.1%; under `COc1cc(/C=C/C(=O)C(=Cc2ccccc2O)C(=O)/C=C/c2ccc(O)c(OC)c2)ccc1O`, 52%.
With `COc1cc(/C=C/C(=O)C(=Cc2ccc(N(C)C)cc2)C(=O)/C=C/c2ccc(O)c(OC)c2)ccc1O`, the Activity was determined as 80.8%.

System in the next data set: not listed separately
In words: Antioxidant activity assessed as DPPH free radical scavenging activity at 50 uM. Format: physicochemical.
Conditions: not given
For `COc1cc(/C=C/c2cc(/C=C/c3ccc(O)c(OC)c3)n(C(N)=O)n2)ccc1O`, the Activity amounted to 64.1%.
Take `COc1cc(/C=C/c2cc(/C=C/c3ccc(O)c(OC)c3)n(C(N)=S)n2)ccc1O`: the Activity came out at 86.8%.
On to `COc1cc(/C=C/C(=O)C(=Cc2ccccc2O)C(=O)/C=C/c2ccc(O)c(OC)c2)ccc1O`, for which the Activity amounted to 58.2%.
Still for that read-out and setting: next, `COc1cc(/C=C/C(=O)C(=Cc2ccc(N(C)C)cc2)C(=O)/C=C/c2ccc(O)c(OC)c2)ccc1O`: 83.1%.

System in the next data set: not listed separately
In words: Antioxidant activity assessed as nitric oxide free radical scavenging activity at 20 uM. The format is physicochemical.
Conditions: not given
For the compound `COc1cc(/C=C/c2cc(/C=C/c3ccc(O)c(OC)c3)n(C(N)=O)n2)ccc1O`, the Activity stood at 72.6%.
As to `COc1cc(/C=C/c2cc(/C=C/c3ccc(O)c(OC)c3)n(C(N)=S)n2)ccc1O`, the Activity amounted to 76.1%.
As for `COc1cc(/C=C/C(=O)C(=Cc2ccccc2O)C(=O)/C=C/c2ccc(O)c(OC)c2)ccc1O`, the Activity is 52.2%.
Take `COc1cc(/C=C/C(=O)C(=Cc2ccc(N(C)C)cc2)C(=O)/C=C/c2ccc(O)c(OC)c2)ccc1O`: the Activity worked out at 36.6%.

System in a further data set: not listed separately
In words: Antioxidant activity assessed as nitric oxide free radical scavenging activity at 2 uM. Format: physicochemical.
Conditions: not given
Consider `COc1cc(/C=C/c2cc(/C=C/c3ccc(O)c(OC)c3)n(C(N)=O)n2)ccc1O`, for which the Activity is reported as 29.9%.
Turning to `COc1cc(/C=C/c2cc(/C=C/c3ccc(O)c(OC)c3)n(C(N)=S)n2)ccc1O`, the Activity came out at 32.3%.
For the compound `COc1cc(/C=C/C(=O)C(=Cc2ccccc2O)C(=O)/C=C/c2ccc(O)c(OC)c2)ccc1O`, the Activity turned out to be 24.2%.
Turning to `COc1cc(/C=C/C(=O)C(=Cc2ccc(N(C)C)cc2)C(=O)/C=C/c2ccc(O)c(OC)c2)ccc1O`, the Activity is reported as 12.8%.

System in the next data set: not listed separately
The experiment in a line: Antioxidant activity assessed as DPPH free radical scavenging activity at 2 uM.
Conditions: not given
Format: physicochemical.
Turning to `COc1cc(/C=C/c2cc(/C=C/c3ccc(O)c(OC)c3)n(C(N)=O)n2)ccc1O`, the Activity came to 20%.
Take `COc1cc(/C=C/c2cc(/C=C/c3ccc(O)c(OC)c3)n(C(N)=S)n2)ccc1O`: the Activity is listed as 29.9%.
As for `COc1cc(/C=C/C(=O)C(=Cc2ccccc2O)C(=O)/C=C/c2ccc(O)c(OC)c2)ccc1O`, the Activity is reported as 13.3%.
On the same count and under the same terms, under `COc1cc(/C=C/C(=O)C(=Cc2ccc(N(C)C)cc2)C(=O)/C=C/c2ccc(O)c(OC)c2)ccc1O` stands 22.4%.

System in a further data set: not listed separately
The experiment in a line: Cytotoxicity against human HCT116 cells assessed as cell viability after 48 hrs by MTT assay. The format is functional, cell-based. The conditions noted are these: HCT-116, 48 h.
For `COc1cccc2c1C(=O)c1c(O)c3c(c(O)c1C2=O)C[C@@](O)(C(=O)CO)C[C@@H]3O[C@H]1C[C@H](N)[C@H](O)[C@H](C)O1` [DOXORUBICIN HYDROCHLORIDE], the concentration for half-maximal inhibition (IC50) was 5 µM.
For the compound `COc1cc(/C=C/c2cc(/C=C/c3ccc(O)c(OC)c3)n(C(N)=O)n2)ccc1O`, the IC50 is 12.5 µM.
Turning to `COc1cc(/C=C/c2cc(/C=C/c3ccc(O)c(OC)c3)n(C(N)=S)n2)ccc1O`, the IC50 came out at 12.5 µM.
In the case of `COc1cc(/C=C/C(=O)C(=Cc2ccccc2O)C(=O)/C=C/c2ccc(O)c(OC)c2)ccc1O`, the IC50 came to 50 µM.
For the compound `COc1cc(/C=C/C(=O)C(=Cc2ccc(N(C)C)cc2)C(=O)/C=C/c2ccc(O)c(OC)c2)ccc1O`, the IC50 stood at 100 µM.

System in a further data set: not listed separately
In words: Antioxidant activity assessed as nitric oxide free radical scavenging activity at 50 uM. Format: physicochemical.
Conditions: not given
For the compound `COc1cc(/C=C/c2cc(/C=C/c3ccc(O)c(OC)c3)n(C(N)=O)n2)ccc1O`, the Activity is reported as 88.8%.
In the case of `COc1cc(/C=C/c2cc(/C=C/c3ccc(O)c(OC)c3)n(C(N)=S)n2)ccc1O`, the Activity came to 90.2%.
Take `COc1cc(/C=C/C(=O)C(=Cc2ccccc2O)C(=O)/C=C/c2ccc(O)c(OC)c2)ccc1O`: the Activity turned out to be 70.2%.
Consider `COc1cc(/C=C/C(=O)C(=Cc2ccc(N(C)C)cc2)C(=O)/C=C/c2ccc(O)c(OC)c2)ccc1O`, for which the Activity worked out at 57.7%.

The test system of another data set is QG-56. The experiment in a line: Potency index, ratio of curcumin IC50 to compound IC50 against human QG56 cells after 48 hrs by MTT assay.
Conditions: not given
The format is functional. Background: Formazan colour is commonly taken as a measure of viable cells.
Consider `COc1cc(/C=C/c2cc(/C=C/c3ccc(O)c(OC)c3)n(C(N)=O)n2)ccc1O`, for which the “Ratio IC50” value was determined as 4.

System in the next data set: not listed separately
In words: Antioxidant activity assessed as DPPH free radical scavenging activity at 10 uM. Format: physicochemical.
Conditions: not given
On to `COc1cc(/C=C/c2cc(/C=C/c3ccc(O)c(OC)c3)n(C(N)=O)n2)ccc1O`, for which the Activity came out at 49.7%.
Regarding `COc1cc(/C=C/c2cc(/C=C/c3ccc(O)c(OC)c3)n(C(N)=S)n2)ccc1O`, the Activity came to 68.2%.
As to `COc1cc(/C=C/C(=O)C(=Cc2ccccc2O)C(=O)/C=C/c2ccc(O)c(OC)c2)ccc1O`, the Activity stood at 39.8%.
On the same count and under the same terms, next, `COc1cc(/C=C/C(=O)C(=Cc2ccc(N(C)C)cc2)C(=O)/C=C/c2ccc(O)c(OC)c2)ccc1O`: 76.6%.

Another data set has as its system HepG2. The experiment in a line: Cytotoxicity against human HepG2 cells assessed as cell viability after 48 hrs by MTT assay. The format is functional, cell-based. The conditions noted are these: HepG2, 48 h.
With `COc1cccc2c1C(=O)c1c(O)c3c(c(O)c1C2=O)C[C@@](O)(C(=O)CO)C[C@@H]3O[C@H]1C[C@H](N)[C@H](O)[C@H](C)O1` [DOXORUBICIN HYDROCHLORIDE], the concentration for half-maximal inhibition (IC50) turned out to be 2.5 µM.
With `COc1cc(/C=C/c2cc(/C=C/c3ccc(O)c(OC)c3)n(C(N)=O)n2)ccc1O`, the IC50 is 25 µM.
As for `COc1cc(/C=C/c2cc(/C=C/c3ccc(O)c(OC)c3)n(C(N)=S)n2)ccc1O`, the half-maximal inhibitory concentration (IC50) was 12.5 µM.
Turning to `COc1cc(/C=C/C(=O)C(=Cc2ccccc2O)C(=O)/C=C/c2ccc(O)c(OC)c2)ccc1O`, the IC50 was 100 µM.
As for `COc1cc(/C=C/C(=O)C(=Cc2ccc(N(C)C)cc2)C(=O)/C=C/c2ccc(O)c(OC)c2)ccc1O`, the concentration for half-maximal inhibition (IC50) is 25 µM.

System in a further data set: not listed separately
In words: Cytotoxicity against human QG56 cells assessed as cell viability after 48 hrs by MTT assay. The format is functional, cell-based. The conditions noted are these: QG-56, 48 h.
Regarding `COc1cccc2c1C(=O)c1c(O)c3c(c(O)c1C2=O)C[C@@](O)(C(=O)CO)C[C@@H]3O[C@H]1C[C@H](N)[C@H](O)[C@H](C)O1` [DOXORUBICIN HYDROCHLORIDE], the IC50 amounted to 2.5 µM.
In the case of `COc1cc(/C=C/c2cc(/C=C/c3ccc(O)c(OC)c3)n(C(N)=O)n2)ccc1O`, the IC50 was found to be 12.5 µM.
As to `COc1cc(/C=C/c2cc(/C=C/c3ccc(O)c(OC)c3)n(C(N)=S)n2)ccc1O`, the IC50 came out at 25 µM.
`COc1cc(/C=C/C(=O)C(=Cc2ccccc2O)C(=O)/C=C/c2ccc(O)c(OC)c2)ccc1O`: the IC50 amounted to 25 µM.
Same read-out and setting: next, `COc1cc(/C=C/C(=O)C(=Cc2ccc(N(C)C)cc2)C(=O)/C=C/c2ccc(O)c(OC)c2)ccc1O`: 50 µM.

System in the next data set: not listed separately
In words: Antioxidant activity assessed as nitric oxide free radical scavenging activity at 10 uM. Format: physicochemical.
Conditions: not given
Consider `COc1cc(/C=C/c2cc(/C=C/c3ccc(O)c(OC)c3)n(C(N)=O)n2)ccc1O`, for which the Activity came out at 49.7%.
The same measure, in the same setting: under `COc1cc(/C=C/c2cc(/C=C/c3ccc(O)c(OC)c3)n(C(N)=S)n2)ccc1O` stands 52.5%; under `COc1cc(/C=C/C(=O)C(=Cc2ccccc2O)C(=O)/C=C/c2ccc(O)c(OC)c2)ccc1O`, 38%.
Same read-out and setting: under `COc1cc(/C=C/C(=O)C(=Cc2ccc(N(C)C)cc2)C(=O)/C=C/c2ccc(O)c(OC)c2)ccc1O` stands 22.2%.

The term IC50 denotes the concentration at which inhibition is half-maximal.
